Test results as given in patent US20240208954A1, “OXADIAZOLE COMPOUND, PREPARATION METHOD THEREFOR, PHARMACEUTICAL COMPOSITION AND USE THEREOF” (SHANGHAI INSTITUTE OF MATERIA MEDICA, CHINESE ACADEMY OF …, priority 2020, published 2024).
Entries after “also recorded” stand apart in the source; their conditions may differ.

How the values were obtained:
[1] = molecular target: T1, S1PR1 (Homo sapiens, UniProt P21453); test: Agonistic activity test on S1P receptors, FLIPR, CHO-K1/Ga15/EDG1 cells; type: cell-based; details: CHO-K1/Ga15/EDG1 cells, FLIPR agonist mode; read-out: S1PR1 EC50
T1 construct: host or cells: CHO-K1 co-expressing Ga15
Protocol: Instrument: FLIPR™ TETRA (Molecular Device)
Experimental materials: CHO-K1/Ga15/EDG1 cells constructed by GenScript autonomously.
Sample processing: Before the experiment, the working solution with the corresponding concentration was prepared by diluting with GPCR dilution buffer.
After 18-20 hours, the cell culture plat was taken out and added with dye working solution, and then the plate was placed in a 37° C./5% CO2 incubator for 1 hour, and finally equilibrated at room temperature for 15 minutes. Positive agonist working solution was added, and RFU values were detected and recorded. […] The positive agonist working fluid was added to the cell culture plate at the 21st second. […] The antagonistic mode detection program, the overall detection time of the instrument was 120 seconds, and positive antagonist working solution was added to the cell culture plate at the 21st second.
Data processing: Raw data were obtained via ScreenWorks (version 3.1) and saved as *FMD files on the Kingsray computer network system. Data were collected and analyzed using Excel and GraphPad Prism 6 software programs. For each well, the average fluorescence intensity value from 1 to 20 seconds was used as the baseline, and the maximum fluorescence intensity value from 21 to 120 seconds minus the minimum fluorescence intensity value from 21 to 120 seconds was the relative fluorescence intensity value (ARFU), from which the percentage activation or inhibition can be calculated based on the following equation.
% Activation Rate=(ΔRFUCompound-ΔRFUBackground)/(ΔRFUAgonist control-ΔRFUBackground)×100%
The data was analyzed using GraphPad Prism 6 with a four-parameter equation to calculate the EC50 and IC50 values. The four-parameter equation was as follows: y=Bottom+(Top-Bottom)/(1+10^((LogEC50/IC50-X)*HillSlope)), wherein X is the Log value of the concentration and Y was the inhibition rate.

[2] = molecular target: S1P2 (Homo sapiens, UniProt O95136); test: Subtype selectivity study, method of Experimental Example 1; type: cell-based
Protocol: (§1) Experimental method: CHO-K1/Ga15/EDG1 cells stably expressing EDG1 receptor were cultured in a 10 cm culture dish in a 37° C./5% CO2incubator, and digested when the confluence rate reached 80%-85%. The cells in collected cell suspension were inoculated into 384 microtiter plates at appropriate density, and then placed in a 37° C./5% CO2 incubator and continue to incubate for at least 18 hours before using for experiments. After 18-20 hours, the cell culture plat was taken out and added with dye working solution, and then the plate was placed in a 37° C./5% CO2 incubator for 1 hour, and finally equilibrated at room temperature for 15 minutes. Positive agonist working solution was added, and RFU values were detected and recorded. The 384 microplates, cell plates and tip box with positive agonist working solution were placed into FLIPRTM TETRA and the agonist mode assay program was run with an overall assay time of 120 seconds. The positive agonist working fluid was added to the cell culture plate at the 21st second. 384 microplate, cell plate and gun head box containing the positive antagonist working fluid were put into the FLIPRTM TETRA. The antagonistic mode detection program, the overall detection time of the instrument was 120 seconds, and positive antagonist working solution was added to the cell culture plate at the 21st second. Data processing: Raw data were obtained via ScreenWorks (version 3.1) and saved as *FMD files on the […] computer network system. Data were collected and analyzed using Excel and GraphPad Prism 6 software programs. […] The four-parameter equation was as follows: y=Bottom+(Top-Bottom)/(1+10^((LogEC50/IC50-X)*HillSlope)), wherein X is the Log value of the concentration and Y was the inhibition rate. The S1P receptor selectivity was tested for different subtypes using the method described in Experimental Example 1.

[3] = molecular target: T2, S1P4 (Homo sapiens, UniProt O95977); test: as above; type: cell-based
T2 sequence (O95977 1-384): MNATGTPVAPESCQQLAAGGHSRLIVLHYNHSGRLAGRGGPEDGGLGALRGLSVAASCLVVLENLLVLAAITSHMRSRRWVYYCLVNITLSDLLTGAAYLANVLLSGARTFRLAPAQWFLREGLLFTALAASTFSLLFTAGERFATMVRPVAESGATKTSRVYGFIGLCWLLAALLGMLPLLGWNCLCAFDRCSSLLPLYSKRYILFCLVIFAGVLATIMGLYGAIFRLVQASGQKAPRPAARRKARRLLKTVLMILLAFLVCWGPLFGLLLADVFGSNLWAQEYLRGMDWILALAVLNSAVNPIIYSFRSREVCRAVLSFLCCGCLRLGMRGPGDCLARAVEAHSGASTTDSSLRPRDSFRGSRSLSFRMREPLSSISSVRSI
Protocol: as §1

[4] = molecular target: S1P5 (Homo sapiens, UniProt Q9H228); test: as above; type: cell-based
Protocol: as §1

[5] = test system: dextran sodium sulfate (DSS)-induced IBD model; test: Pharmacological activity test in DSS-induced IBD model; type: in vivo, mice
Protocol: The mice were randomly divided into […]: normal control group (Control,n=5), model control group (Model,n=11), positive compound BAF312 group (0.3 mg/kg,n=10), low dose group (0.03 mg/kg,n=10), medium dose group (0.3 mg/kg,n=10), high dose group (3 mg/kg, n=10), and each group was administered by gavage in a volume of 5 mL/kg once a day. DSS with an average molecular weight of 36000˜50000 Da was dissolved in drinking water to make 2% DSS solution, and the mice in the modeling group were allowed to drink it freely for 6 days, while the drug administration treatments were carried out simultaneously. The body weight, fecal hardness and occult blood of mice in each group were observed every day, and the scores of each index were summed to obtain the disease activity index of each animal. After 6 days of completion of modeling and drug administration, the modeling reagents were withdrawn for a 1-day remission period, and the mice were sacrificed by dislocation after blood was taken via the posterior ophthalmic plexus. Colon tissue and spleen were measured for length or weighed, part of the colon was fixed in 4% paraformaldehyde, and all tissues and serum were stored at −80° C.

Chain of S1P2 (O95136 whole entry, species assumed): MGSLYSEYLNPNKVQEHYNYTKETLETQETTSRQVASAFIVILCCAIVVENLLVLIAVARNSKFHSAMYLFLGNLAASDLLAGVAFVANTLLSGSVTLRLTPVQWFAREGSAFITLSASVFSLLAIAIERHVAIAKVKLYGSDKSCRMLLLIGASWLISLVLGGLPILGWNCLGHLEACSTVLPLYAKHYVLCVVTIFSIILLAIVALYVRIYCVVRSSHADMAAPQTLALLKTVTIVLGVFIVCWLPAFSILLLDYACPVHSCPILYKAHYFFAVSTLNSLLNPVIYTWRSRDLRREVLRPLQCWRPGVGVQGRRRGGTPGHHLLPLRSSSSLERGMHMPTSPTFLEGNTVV
T1 sequence (P21453 whole entry): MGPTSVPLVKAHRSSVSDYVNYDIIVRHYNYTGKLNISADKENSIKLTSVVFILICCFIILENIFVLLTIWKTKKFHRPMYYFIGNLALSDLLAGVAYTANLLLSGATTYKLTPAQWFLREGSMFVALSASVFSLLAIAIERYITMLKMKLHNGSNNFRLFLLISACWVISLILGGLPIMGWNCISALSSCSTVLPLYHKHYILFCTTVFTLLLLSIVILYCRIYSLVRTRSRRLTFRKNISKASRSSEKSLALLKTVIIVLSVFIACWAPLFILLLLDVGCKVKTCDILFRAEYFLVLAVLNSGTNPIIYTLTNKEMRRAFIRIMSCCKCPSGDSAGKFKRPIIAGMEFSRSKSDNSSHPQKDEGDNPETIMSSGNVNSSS
Chain of S1P5 (Q9H228 whole entry, species assumed): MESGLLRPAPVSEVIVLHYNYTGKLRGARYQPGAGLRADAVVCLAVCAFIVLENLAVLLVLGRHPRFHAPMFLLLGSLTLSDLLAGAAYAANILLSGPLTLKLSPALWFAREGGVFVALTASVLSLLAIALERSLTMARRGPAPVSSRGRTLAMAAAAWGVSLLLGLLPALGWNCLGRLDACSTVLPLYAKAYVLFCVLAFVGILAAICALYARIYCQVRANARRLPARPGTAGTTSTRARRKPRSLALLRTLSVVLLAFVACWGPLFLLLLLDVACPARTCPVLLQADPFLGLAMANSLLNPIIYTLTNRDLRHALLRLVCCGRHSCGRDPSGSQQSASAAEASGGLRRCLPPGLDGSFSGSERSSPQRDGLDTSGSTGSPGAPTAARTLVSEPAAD

`CC(C)Oc1ccc(-c2nc(-c3ccc(CN4CC(C(=O)O)C4)c4ccccc34)no2)cc1C#N.Cl` [Compound A1, 1-((4-(5-(3-cyano-4-isopropoxyphenyl)-1,2,4-oxadiazol-3-yl)naphthalen-1-yl)methyl) azetidine-3-carboxylic acid hydrochloric acid] was tested, and the EC50 [1] was 48 nM, the EC50 [2] was greater than 10 µM and the EC50 [3] was greater than 10 µM. For the same molecule, the EC50 [4] was 120 nM, the “impaired crypt and inflammatory infiltration in colon sites” value ([5]; H&E-stained colon sections, high/medium doses (3/0.3 mg/kg)) was “effectively improve” and the “overall effect in the IBD model” value ([5]; concluding statement) was “significant anti-inflammatory as well as pathological ameliorating effects”. For the same molecule, the “weight of the spleen” value ([5]; high/medium/low doses) was “without affecting”, the “disease process (weight change, stool consistency, rectal bleeding, disease activity index)” value ([5]; high/medium/low doses (3/0.3/0.03 mg/kg), gavage once a day, to different degrees) was “effective in alleviating; also recorded: alleviated” and the “shorten of colon length” value ([5]; high/medium/low doses (3/0.3/0.03 mg/kg), to different degrees) was “effective in alleviating”.
